Values after ≈ are worked out from the molar mass of the structure shown. Like-named read-outs stand apart in the source and are kept apart here. Each block holds one compound with its values, some of them ahead of it.
What was measured:
Type in all cases: cell-based
[1] = tested on: E. coli ESBL ATCC 35218; test: Microdilution MIC assay; details: Escherichia coli, ATCC35218; E. coli ESBL ATCC 35218, 24 h at 35 °C
Method in brief: (§1)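 MICs come from a microwell dilution format incubated for 24 h at 35 °C, with the endpoint being the lowest concentration that prevented visible growth.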

[2] = tested on: S. aureus MRSA ATCC 46300; test: Microdilution MIC assay; details: Staphylococcus aureus; S. aureus MRSA ATCC 46300, 24 h at 35 °C; read-out: MIC
Method in brief: as §1

[3] = tested on: S. mutans ATCC 35668; test: Microdilution MIC assay; details: S. mutans ATCC 35668, 24 h at 35 °C
Method in brief: as §1

[4] = tested on: P. aeruginosa AGME ATCC 27853; test: Microdilution MIC assay; details: Pseudomonas aeruginosa, ATCC27853; P. aeruginosa AGME ATCC 27853, 24 h at 35 °C
Method in brief: as §1

[5] = tested on: S. aureus MSSA ATCC 29213; test: Microdilution MIC assay; details: Staphylococcus aureus, 24 h, S. aureus MSSA ATCC 29213, 24 h at 35 °C; read-out: MIC
Method in brief: as §1

[6] = tested on: E. coli ATCC 25922; test: Microdilution MIC assay; details: Escherichia coli, ATCC25922; E. coli ATCC 25922, 24 h at 35 °C
Method in brief: as §1

[7] = LDH cytotoxic activity assay, HT29; details: human, HT29 cells; for cytotoxicity at 24 h, 25 μg/mL: HT29, 25 μg/mL; for cytotoxicity at 24 h, 50 μg/mL: HT29, 50 μg/mL; for cytotoxicity at 24 h, 75 μg/mL: HT29, 75 μg/mL; for cytotoxicity at 24 h, 100 μg/mL: HT29, 100 μg/mL
Method in brief: (§2)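 About 5 × 10^3 cells per well, in triplicate, exposed to 25, 50, 75 and 100 μg/mL of test compound for 24 h at 37 °C, 5% CO2. Cells grown in DMEM or RPMI 1640 with 10% FBS. LDH activity read as absorbance at 492–630 nm.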

[8] = tested on: normal FL cells; test: cells; details: FL normal cells, MTT; for IC50: read-out: IC50; for IC (total growth inhibition): read-out: TGI
Method in brief: (§3)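 Cells were seeded at about 1 × 10^4 per well, brought to 200 μL with medium, and assessed by MTT: 4 h with MTT reagent, formazan dissolved in DMSO with Sorenson's buffer, absorbance read at 560 nm (690 nm reference). IC50 derived from percent inhibition relative to DMSO.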

[9] = in vitro; details: human, LC50
Method in brief: as §3

[10] = LDH cytotoxic activity assay, HeLa; details: human, HeLa cells
Method in brief: as §2

[11] = tested on: A549; test: cells; details: Homo sapiens; for LC50 (concentration causing 50% net cell loss): A549, read-out: LC50; for GI50 / IC50 / IC (total growth inhibition): A549, MTT; for IC50: read-out: IC50; for IC (total growth inhibition): read-out: TGI
Method in brief: as §3

[12] = tested on: Hep3B; test: cells; details: Homo sapiens; for GI50 / IC50 / IC (total growth inhibition): MTT; for IC50: read-out: IC50; for IC (total growth inhibition): read-out: TGI; for LC50 (concentration causing 50% net cell loss relative to time zero): read-out: LC50
Method in brief: as §3

[13] = tested on: MCF7; test: cells; details: Homo sapiens; for LC50 (concentration causing 50% net cell loss relative to time zero): MCF7, read-out: LC50; for GI50 / IC50 / IC (total growth inhibition): MCF7, MTT; for IC50: read-out: IC50; for IC (total growth inhibition): read-out: TGI
Method in brief: as §3

[14] = tested on: HT29; test: cells; details: Homo sapiens; for LC50 (concentration giving 50% net cell loss relative to time zero): HT-29, read-out: LC50; for GI50 / IC50 / IC (total growth inhibition): HT-29, HT29, MTT; for IC50: read-out: IC50; for IC (total growth inhibition): read-out: TGI
Method in brief: as §3

[15] = tested on: C6 (Rat brain glioma); test: cells; details: Rattus norvegicus; for LC50 (concentration giving 50% net cell loss relative to time zero): read-out: LC50; for GI50 / IC50 / IC (total growth inhibition): C6, MTT; for IC50: read-out: IC50; for IC (total growth inhibition): read-out: TGI
Method in brief: as §3

[16] = tested on: HeLa; test: cells; details: Homo sapiens; for GI50 / IC50 / IC (total growth inhibition): MTT; for IC50: read-out: IC50; for IC (total growth inhibition): read-out: TGI; for LC50 (concentration causing 50% net cell loss): read-out: LC50
Method in brief: as §3

[17] = LDH cytotoxic activity assay, C6; details: rat, C6 glioma cells; for cytotoxicity at 24 h, 25 μg/mL: C6, 25 μg/mL; for cytotoxicity at 24 h, 50 μg/mL: C6, 50 μg/mL; for cytotoxicity at 24 h, 75 μg/mL: C6, 75 μg/mL; for cytotoxicity at 24 h, 100 μg/mL: C6, 100 μg/mL
Method in brief: as §2

[18] = Streptococcus mutans, ATCC35668, 24 h, read-out: MIC

MIC [1]: > 1000 µg/mL
MIC [2]: 250 µg/mL (≈ 589 µM)
MIC [3]: 125 µg/mL (≈ 294 µM)
MIC [3, 18]: 62.5 to 125 µg/mL (≈ 147 to 294 µM)
MIC [4]: > 1000 µg/mL
MIC [5]: 250 µg/mL (≈ 589 µM)
MIC [6]: > 1000 µg/mL
GI50 [11]: 125 µg/mL (≈ 295 µM)
IC50 [11]: > 500 µg/mL
GI50 [12]: 4.26 µg/mL (≈ 10 µM)
IC50 [12]: 183 µg/mL (≈ 430 µM)
GI50 [13]: 2.04 µg/mL (≈ 4.81 µM)
IC50 [13]: > 500 µg/mL
GI50 [14]: 2.5 µg/mL (≈ 5.89 µM)
IC50 [14]: 29.9 µg/mL (≈ 70.5 µM)
GI50 [15]: 8.15 µg/mL (≈ 19.2 µM)
IC50 [15]: 29.3 µg/mL (≈ 69 µM)
GI50 [16]: 7.17 µg/mL (≈ 16.9 µM)
IC50 [16]: 31.9 µg/mL (≈ 75 µM)
Compound: Cc1ccc(-c2cc(-c3ccccn3)nc(N[C@@H]3O[C@H](CO)[C@@H](O)[C@H](O)[C@H]3O)n2)cc1 [Compound 7, N-[4-(4-methylphenyl)-6-pyridin-2-ylpyrimidin-2-yl]-β-D-glucopyranosylamine]
cytotoxicity at 24 h, 25 μg/mL [7]: 26%
cytotoxicity at 24 h, 50 μg/mL [7]: 40.7%
cytotoxicity at 24 h, 75 μg/mL [7]: 75.9%
cytotoxicity at 24 h, 100 μg/mL [7]: 91.8%
GI50 [8]: 6.1 µg/mL (≈ 14.4 µM)
IC50 [8]: 255 µg/mL (≈ 600 µM)
IC (total growth inhibition) [8]: 266 µg/mL
LC50 (concentration causing 50% net cell loss) [9]: > 500 µg/mL
cytotoxicity at 24 h, 25 μg/mL [10]: 11.9%
cytotoxicity at 24 h, 50 μg/mL [10]: 25.1%
cytotoxicity at 24 h, 75 μg/mL [10]: 38.4%
cytotoxicity at 24 h, 100 μg/mL [10]: 50.7%
LC50 (concentration causing 50% net cell loss) [11]: > 500 µg/mL
IC (total growth inhibition) [11]: > 500 µg/mL
IC (total growth inhibition) [12]: 194 µg/mL
LC50 (concentration causing 50% net cell loss relative to time zero) [12]: > 500 µg/mL
LC50 (concentration causing 50% net cell loss relative to time zero) [13]: > 500 µg/mL
IC (total growth inhibition) [13]: > 500 µg/mL
LC50 (concentration giving 50% net cell loss relative to time zero) [14]: > 500 µg/mL
IC (total growth inhibition) [14]: 49.2 µg/mL
LC50 (concentration giving 50% net cell loss relative to time zero) [15]: 88.3 µg/mL (≈ 208 µM)
IC (total growth inhibition) [15]: 21.5 µg/mL
IC (total growth inhibition) [16]: 21.6 µg/mL
LC50 (concentration causing 50% net cell loss) [16]: 120 µg/mL (≈ 284 µM)
cytotoxicity at 24 h, 25 μg/mL [17]: 22%
cytotoxicity at 24 h, 50 μg/mL [17]: 48.6%
cytotoxicity at 24 h, 75 μg/mL [17]: 69.5%
cytotoxicity at 24 h, 100 μg/mL [17]: 85.8%

MIC [1]: > 1000 µg/mL
MIC [2]: 250 µg/mL (≈ 422 µM)
MIC [3]: 62.5 µg/mL (≈ 105 µM)
MIC [3, 18]: 62.5 to 125 µg/mL (≈ 105 to 211 µM)
MIC [4]: > 1000 µg/mL
MIC [5]: 250 µg/mL (≈ 422 µM)
MIC [6]: > 1000 µg/mL
GI50 [11]: > 500 µg/mL
IC50 [11]: > 500 µg/mL
GI50 [12]: 5.55 µg/mL (≈ 9.37 µM)
IC50 [12]: > 500 µg/mL
GI50 [13]: 4.1 µg/mL (≈ 6.92 µM)
IC50 [13]: > 500 µg/mL
GI50 [14]: 5 µg/mL (≈ 8.44 µM)
IC50 [14]: > 500 µg/mL
GI50 [15]: 2.21 µg/mL (≈ 3.73 µM)
IC50 [15]: 11.2 µg/mL (≈ 19 µM)
GI50 [16]: > 500 µg/mL
IC50 [16]: > 500 µg/mL
Compound: CC(=O)OC[C@H]1O[C@@H](Nc2nc(-c3ccncc3)cc(-c3cccc(C)c3)n2)[C@H](OC(C)=O)[C@@H](OC(C)=O)[C@@H]1OC(C)=O [Compound 15, 2,3,4,6-tetra-O-acetyl-N-[4-(3-methylphenyl)-6-pyridin-4-ylpyrimidin-2-yl]-β-D-glucopyranosylamine]
cytotoxicity at 24 h, 25 μg/mL [7]: 23.8%
cytotoxicity at 24 h, 50 μg/mL [7]: 45%
cytotoxicity at 24 h, 75 μg/mL [7]: 62.6%
cytotoxicity at 24 h, 100 μg/mL [7]: 78.6%
GI50 [8]: 26.7 µg/mL (≈ 45 µM)
IC50 [8]: > 500 µg/mL
IC (total growth inhibition) [8]: > 500 µg/mL
LC50 (concentration causing 50% net cell loss) [9]: > 500 µg/mL
cytotoxicity at 24 h, 25 μg/mL [10]: 18.4%
cytotoxicity at 24 h, 50 μg/mL [10]: 31.7%
cytotoxicity at 24 h, 75 μg/mL [10]: 37.1%
cytotoxicity at 24 h, 100 μg/mL [10]: 56%
LC50 (concentration causing 50% net cell loss) [11]: > 500 µg/mL
IC (total growth inhibition) [11]: > 500 µg/mL
IC (total growth inhibition) [12]: > 500 µg/mL
LC50 (concentration causing 50% net cell loss relative to time zero) [12]: > 500 µg/mL
LC50 (concentration causing 50% net cell loss relative to time zero) [13]: > 500 µg/mL
IC (total growth inhibition) [13]: > 500 µg/mL
LC50 (concentration giving 50% net cell loss relative to time zero) [14]: > 500 µg/mL
IC (total growth inhibition) [14]: > 500 µg/mL
LC50 (concentration giving 50% net cell loss relative to time zero) [15]: 71.2 µg/mL (≈ 120 µM)
IC (total growth inhibition) [15]: 6.3 µg/mL
IC (total growth inhibition) [16]: > 500 µg/mL
LC50 (concentration causing 50% net cell loss) [16]: > 500 µg/mL
cytotoxicity at 24 h, 25 μg/mL [17]: 20.4%
cytotoxicity at 24 h, 50 μg/mL [17]: 55%
cytotoxicity at 24 h, 75 μg/mL [17]: 77.1%
cytotoxicity at 24 h, 100 μg/mL [17]: 83.3%

From publication PMC10387993, “New pyrimidine-N-β-D-glucosides: synthesis, biological evaluation, and molecular docking investigations” (Turkish Journal of Chemistry, 2023)
